Results: patent US8426447B2, “Spiro-tricyclic ring compounds as beta-secretase modulators and methods of use” (Amgen Inc., priority 2008, dated 2013)

Assays:
BACE1 [1] = target: T1, BACE1 (Homo sapiens, UniProt P56817); assay: In Vitro BACE Cell-based Assay (HEK cell assay): Aβ40 in conditioned medium of cells stably expressing Amyloid Precursor Protein, sandwich ELISA; conditions: read-out: HEK cell assay
Procedure, shortened: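 HEK cells stably expressing APP were treated 24 h with compound in 10-point dose response starting at 100 or 10 μM (0.1% DMSO). Secreted Aβ40 quantified by sandwich ELISA (pAb40 capture, biotinylated 6E10 detection, europium time-resolved fluorescence), with IC50 derived from percent inhibition versus concentration.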

BACE1 [2] = target: T1, BACE1; assay: In Vitro Enzymatic BACE FRET (Fluorescence Resonance Energy Transfer) Assay; assay type: biochemical; conditions: read-out: BACE1 FRET assay
Procedure, shortened: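 Buffer 0.05 M acetate pH 4.2 with 10% DMSO final and 100 uM genapol; reaction started with 50 nM FRET peptide substrate (fluorophore/quencher flanking BACE cleavage site), incubated one hour. Stopped with Tris buffer raising pH to neutrality, then fluorescence read.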

[3] = HEK cell-based assay, Aβ40 in conditioned medium, IC50 class symbols
[4] = in vitro BACE FRET enzyme assay, IC50 class symbols

T1 sequence (P56817 46-501, species assumed): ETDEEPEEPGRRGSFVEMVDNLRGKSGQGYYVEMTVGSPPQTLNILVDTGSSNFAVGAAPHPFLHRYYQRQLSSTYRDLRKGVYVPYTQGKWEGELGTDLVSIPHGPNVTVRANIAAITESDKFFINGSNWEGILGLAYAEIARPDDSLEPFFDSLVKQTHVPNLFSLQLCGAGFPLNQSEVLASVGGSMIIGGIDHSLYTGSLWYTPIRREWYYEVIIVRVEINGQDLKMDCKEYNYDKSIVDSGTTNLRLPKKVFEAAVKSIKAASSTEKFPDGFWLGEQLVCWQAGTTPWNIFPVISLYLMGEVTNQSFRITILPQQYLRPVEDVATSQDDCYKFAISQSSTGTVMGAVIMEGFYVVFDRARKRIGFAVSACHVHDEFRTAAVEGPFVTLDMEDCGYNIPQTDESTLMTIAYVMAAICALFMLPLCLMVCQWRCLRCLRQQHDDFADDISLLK

SMILES | IC50 (BACE1 [1]; Table III, IC50's in uM ranges) [µM] | IC50 (BACE1 [2]; Table III, IC50's in uM ranges) [µM] | IC50 (BACE1 [2]) [µM] | also measured
C[C@H]1OC(N)=N[C@@]12c1cc(OCC(C)(C)C)ccc1Oc1ccc(-c3cncnc3)cc12 [126d] | < 0.1 | < 0.1 | – | –
COC(C)(C)CCc1ccc2c(c1)[C@]1(COC(N)=N1)c1cc(-c3cncnc3)ccc1O2 [Example 122, (R)-2′-(3-methoxy-3-methylbutyl)-7′-(pyrimidin-5-yl)-5H-spiro[oxazole-4,9′-xanthen]-2-amine] | < 0.1 | < 0.1 | – | –
NC1=N[C@@]2(CO1)c1cc(Br)ccc1Oc1ccc(Oc3ccccn3)cc12 [compound 206] | 0.1 to 1 | > 5 | – | –
Cc1cncc(-c2ccc3c(c2)[C@@]2(COC(N)=N2)c2cc(N4CCOCC4)ncc2O3)c1 [compound 325] | – | – | – | IC50 (BACE1 [1]; [3]): < 0.1 µM; IC50 (BACE1 [2]; [4]): < 0.1 µM
COC(=O)/C=C/c1ccc2c(c1)[C@@]1(COC(N)=N1)c1cc(-c3cccnc3)ccc1O2 [compound 918] | – | – | – | IC50 (BACE1 [1]; Table IV, class symbols): 0.1 to 1 µM; IC50 (BACE1 [2]; Table IV, class symbols): 0.1 to 1 µM
N#Cc1ccc(-c2ccc3c(c2)[C@]2(COC(N)=N2)c2cc(-c4cccnc4)ccc2O3)cc1 [compound 204] | < 0.1 | < 0.1 | – | –
NC1=N[C@]2(CO1)c1cc(OCC3CC3(F)F)ccc1Oc1ccc(-c3cncnc3)cc12 (stereo partly drawn) [Example 62, (4S)-2′-((2,2-difluorocyclopropyl)methoxy)-7′-(5-pyrimidinyl)spiro[1,3-oxazole-4,9′-xanthen]-2-amine] | – | – | – | IC50 (BACE1 [1]; Table II, Aβ40, 24 h incubation): < 0.1 µM; IC50 (BACE1 [2]; Table II): < 0.1 µM
NC1=N[C@@]2(CO1)c1cc(-c3cccnc3F)ccc1Oc1ccc(C3CCOCC3)nc12 [compound 338] | – | – | – | IC50 (BACE1 [1]; [3]): < 0.1 µM; IC50 (BACE1 [2]; [4]): < 0.1 µM
NC1=N[C@@]2(CO1)c1cc(-c3cccnc3F)ccc1Oc1ncc(-c3ccncc3)cc12 [compound 403] | – | – | – | IC50 (BACE1 [1]; [3]): < 0.1 µM; IC50 (BACE1 [2]; [4]): < 0.1 µM
NC1=N[C@@]2(CO1)c1cc(-c3ccc(F)nc3)ccc1Oc1cnc(C3=CCOCC3)cc12 [compound 431, (5S)-3-(3,6-dihydro-2H-pyran-4-yl)-7-(6-fluoro-3-pyridinyl)spiro[chromeno[2,3-c]pyridine-5,4′-[1,3]oxazol]-2′-amine] | – | – | < 0.1 | IC50 (BACE1 [1]; HEK cells): < 0.1 µM
COc1cncc(-c2ccc3c(c2)[C@@]2(COC(N)=N2)c2cc(C#CC(C)(C)OC)cnc2O3)c1 [compound 602] | – | – | – | IC50 (BACE1 [1]; Table IV, class symbols): < 0.1 µM; IC50 (BACE1 [2]; Table IV, class symbols): < 0.1 µM
CC(C)(C)C#Cc1ccc2c(c1)[C@]1(COC(N)=N1)c1cc(-c3ccc(F)nc3)ccc1O2 [147a] | 0.1 to 1 | < 0.1 | – | –
CCCOc1cc2c(cc1F)Oc1ccc(-c3cncnc3)cc1[C@]21COC(N)=N1 [compound 941] | – | – | 0.1 to 1 | IC50 (BACE1 [1]): 1 to 5 µM
CC(C)(C)OCCOc1ccc2c(c1)[C@]1(COC(N)=N1)c1cc(-c3cncnc3)ccc1O2 [compound 158] | < 0.1 | < 0.1 | – | –
CC(C)(C)CC(O)c1ccc2c(c1)[C@@]1(COC(N)=N1)c1cc(-c3ccc(F)nc3)ccc1O2 (some centres unmarked) [162b] | 0.1 to 1 | 0.1 to 1 | – | –
NC1=N[C@@]2(CO1)c1cc(-c3cccnc3)ccc1Oc1ccc(-c3ccc(F)nc3)cc12 [compound 969] | – | – | < 0.1 | IC50 (BACE1 [1]): < 0.1 µM
CC(C)(C)COc1ccc2c(c1)[C@]1(COC(N)=N1)c1cc(-c3csc(C(F)F)c3)ccc1O2 [compound 737] | – | – | < 0.1 | IC50 (BACE1 [1]): 0.1 to 1 µM
CC1(C)C=C(c2cc3c(cc2F)Oc2ccc(-c4cncnc4)cc2[C@@]32COC(N)=N2)CCO1 [compound 502] | – | – | < 0.1 | IC50 (BACE1 [1]; HEK cells): < 0.1 µM
NC1=N[C@@]2(CO1)c1cc(-c3cccnc3)ccc1Oc1cnc(N3CCC4(CC3)OCCO4)cc12 [compound 443] | – | – | < 0.1 | IC50 (BACE1 [1]; HEK cells): < 0.1 µM
NC1=N[C@@]2(CO1)c1cc(-c3cccnc3)ccc1Oc1ccc(Cl)nc12 [compound 988] | – | – | 1 to 5 | IC50 (BACE1 [1]): 1 to 5 µM
COc1ccc2c(c1)[C@]1(COC(N)=N1)c1cc(-c3cncnc3)ccc1O2 [Example 10, (4S)-2′-methoxy-7′-(5-pyrimidinyl)spiro[1,3-oxazole-4,9′-xanthen]-2-amine] | – | – | – | IC50 (BACE1 [1]; Table 1, Aβ40, 24 h incubation): 1 to 5 µM; IC50 (BACE1 [2]; Table 1): 0.1 to 1 µM
CC1(C)CC1c1cc2c(cn1)Oc1ccc(-c3cccnc3)cc1[C@]21COC(N)=N1 (some centres unmarked) [compound 677] | – | – | < 0.1 | IC50 (BACE1 [1]): 0.1 to 1 µM
CC(C)(C)COc1ccc2c(c1)[C@@]1(COC(N)=N1)c1cc(-c3ccc(C#N)cc3)ccc1O2 [Example 128, (R)-4-(2-amino-2′-(neopentyloxy)-5H-spiro[oxazole-4,9′-xanthene]-7′-yl)benzonitrile] | 0.1 to 1 | < 0.1 | – | –
NC1=N[C@]2(CO1)c1cc(C3=CCOCC3)ccc1Oc1cnc(Cl)cc12 [compound 499] | – | – | 1 to 5 | IC50 (BACE1 [1]; HEK cells): > 5 µM
COc1ccc2c(c1)[C@@]1(COC(N)=N1)c1cc(Br)cnc1O2 [compound 680] | – | – | > 5 | IC50 (BACE1 [1]): > 5 µM
